Laboratory results: patent EP4578856A1, “HETEROCYCLIC COMPOUND” (Ubience Inc., priority 2022, dated 2024)

How the values were obtained:
FAK protein = FAK protein (Homo sapiens, UniProt Q05397); assay: Degradation inducing activity of FAK protein in PA-1 cells, Western blotting (Simple Western JESS); format: cell-based; parameters: endogenous in cells; host or cells: PA-1 (ATCC CRL-1572); settings: at 10 µM, 24 hours
Procedure: In vitro degradation inducing activity of FAK protein of compounds of Examples was evaluated by Western Blotting (WB).
By a test compound, 10 mM DMSO solution was prepared, which was used as a 10 µM test compound solution. Further, the solution was diluted 10-fold with DMSO to prepare a 1 mM solution, which was used as a 1 µM test compound solution.
PA-1 cells (ATCC: CRL-1572, Lot: 70055709) were cultured in Eagle's Minimum Essential Medium supplemented with 10% FBS and 1% Penicillin/Streptomycin. The PA-1 cells seeded in a 24 well plate at 200,000 cells/well/1 mL were cultured for 24 hours, and then 1 µL of DMSO or a test compound solution was added thereto and treatment was performed for 24 hours. Cells were harvested and lysed for 20 minutes on ice using RIPA lysis buffer (Sigma, Cat#R0278) supplemented with protease inhibitor cocktail (Sigma, Cat#P8340; Roche, Cat#P11873580001), and phosphatase inhibitor cocktail (Sigma, Cat#P5726, P0044). The lysate was sonicated (15 seconds, amplitude 30%, 1 cycle) and then centrifuged at 12500 rpm for 15 minutes at 4°C. The protein concentration was determined by BCA assay kit (Thermo Fisher Scientific, Cat#23225).
The western blotting was performed using Simple Western JESS (protein simple). A cell lysis sample (protein amount; about 2 µg) was loaded on a plate of Simple Western JESS, and the expression level of […] was detected using a 12-230 kDa Wes Separation Module (Protein simple, Cat#SM-WO04), an Anti-Rabbit Detection Module for Wes (Protein simple, Cat#DM-001), and a Total Protein Detection Module for Wes (Protein simple, Cat#DM-TP01). As the primary antibody, a material obtained by diluting FAK Rabbit mAb (Cell Signaling Technology, Cat#3285) at 1:100 was used, and as the secondary antibody, a material obtained by diluting HRP-labeled anti-rabbit IgG antibody (Cell Signaling Technology, Cat#7074S) at 1:250 was used. The expression level of the target protein was standardized using the total protein amount loaded as a reference. The standardized expression level data of the control (DMSO) was taken as 100%, and the degradation rate (%) was calculated from the average standardized expression level data of the test compounds (compounds of Examples 109 to 128). All analysis steps, such as data detection and analysis, are fully automated.

ROCK2 protein [1] = biological target: T1, ROCK2 protein (Homo sapiens, UniProt O75116); assay: ROCK2 kinase inhibitory activity, mobility shift assay (MSA, Carna Biosciences); format: biochemical; parameters: GST (N); purchased Carna Biosciences, Inc; host or cells: baculovirus expression system; settings: read-out: ROCK2 inhibition rate; for inhibition at 0.03 µM: evaluation concentration 0.03 µM
Procedure: The ROCK2 kinase inhibitory activity was measured using a mobility shift assay (MSA) provided by Carna Biosciences, Inc.
The test compound was dissolved in DMSO and further diluted with DMSO to prepare a solution having a concentration 100 times the evaluation concentration. The solution was further diluted 25 times with an assay buffer (20 mmol/L HEPES, 0.01% Triton (registered trademark) X-100, 1 mmol/L DTT, pH 7.5) to obtain a test compound solution.
The human ROCK2 kinase was expressed by fusing the catalytic domain (1 to 553 amino acids of Accession No. NP_004841.2) with GST at the N-terminus using the baculovirus expression system. GST-ROCK2 was purified by glutathione sepharose chromatography.
A 4-fold concentration substrate (LIMKtide, 1000 nmol/L) /ATP (5 µmol/L)/metal solution (Mg, 5 mmol/L) was prepared with kit buffer (20 mmol/L HEPES, 0.01% Triton (registered trademark) X-100, 5 mmol/L DTT, pH 7.5). A 2-fold concentration kinase solution was prepared with assay buffer. 5 µL of a 4-fold concentration test compound solution, 5 µL of a 4-fold concentration substrate/ATP/metal solution, and 10 µL of a 2-fold concentration kinase solution were mixed in a well of a polypropylene 384 well plate, and the mixture was reacted at room temperature for 1 hour. 70 µL of termination buffer (127 mmol/L HEPES, 0.01% Triton (registered trademark) X-100, 26.7 mmol/L EDTA-2Na, 1% DMSO, pH 7.5) was added to stop the reaction. The substrate peptide and the phosphorylated peptide in the reaction solution were separated and quantified using a LabChip (trademark) system (Perkin Elmer).
The kinase reaction was evaluated by the product ratio (P/(P + S)) calculated from the substrate peptide peak height (S) and the phosphorylated peptide peak height (P).
The average signal of the control well including all the reaction components was set to 0% suppression, the average signal of the background well (no enzyme added) was set to 100% suppression, and the inhibition rate was calculated from the average signal of the test compound test well.
The ROCK2 inhibition rate and the evaluation concentration of the test compound are shown in Table 4-1, and the IC50 value of the inhibitory activity is shown in Table 4-2. […]
Target sequence in this assay (O75116 1-553): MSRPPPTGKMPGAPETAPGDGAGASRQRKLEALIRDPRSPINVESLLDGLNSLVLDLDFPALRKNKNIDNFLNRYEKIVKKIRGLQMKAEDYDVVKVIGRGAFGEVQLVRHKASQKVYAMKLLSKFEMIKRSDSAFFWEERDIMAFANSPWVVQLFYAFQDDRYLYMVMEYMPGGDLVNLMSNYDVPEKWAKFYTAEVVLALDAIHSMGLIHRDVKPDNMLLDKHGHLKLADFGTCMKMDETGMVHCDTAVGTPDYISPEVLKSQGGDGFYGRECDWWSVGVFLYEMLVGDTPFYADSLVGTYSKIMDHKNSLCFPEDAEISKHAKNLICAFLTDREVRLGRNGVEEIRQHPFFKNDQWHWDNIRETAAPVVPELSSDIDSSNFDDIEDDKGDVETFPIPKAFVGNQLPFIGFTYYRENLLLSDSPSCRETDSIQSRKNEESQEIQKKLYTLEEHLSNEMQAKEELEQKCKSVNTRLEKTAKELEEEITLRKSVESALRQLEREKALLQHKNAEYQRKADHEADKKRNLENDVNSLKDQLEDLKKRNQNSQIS

ROCK2 protein [2] = biological target: T1, ROCK2 protein; assay: Degradation inducing activity of ROCK2 protein in HUVEC cells, Western blotting (Simple Western JESS); format: cell-based; parameters: endogenous in cells; host or cells: HUVEC (ATCC CRL-1730); settings: HUVEC, 24 h; for inhibition at 1 µM: degradation rate at 1 µM; for inhibition at 10 µM: degradation rate at 10 µM
How it was run: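 HUVEC cells treated 24 h with compound at 10 µM or 1 µM, then lysed; ROCK2 quantified by capillary Western (Simple Western JESS) using rabbit mAb D1B1, normalized to total loaded protein. Degradation rate (%) calculated relative to DMSO control set at 100%, binned A ≥75%, B 50–75%, C 25–50%, D <25%.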
Target sequence in this assay (O75116 whole entry): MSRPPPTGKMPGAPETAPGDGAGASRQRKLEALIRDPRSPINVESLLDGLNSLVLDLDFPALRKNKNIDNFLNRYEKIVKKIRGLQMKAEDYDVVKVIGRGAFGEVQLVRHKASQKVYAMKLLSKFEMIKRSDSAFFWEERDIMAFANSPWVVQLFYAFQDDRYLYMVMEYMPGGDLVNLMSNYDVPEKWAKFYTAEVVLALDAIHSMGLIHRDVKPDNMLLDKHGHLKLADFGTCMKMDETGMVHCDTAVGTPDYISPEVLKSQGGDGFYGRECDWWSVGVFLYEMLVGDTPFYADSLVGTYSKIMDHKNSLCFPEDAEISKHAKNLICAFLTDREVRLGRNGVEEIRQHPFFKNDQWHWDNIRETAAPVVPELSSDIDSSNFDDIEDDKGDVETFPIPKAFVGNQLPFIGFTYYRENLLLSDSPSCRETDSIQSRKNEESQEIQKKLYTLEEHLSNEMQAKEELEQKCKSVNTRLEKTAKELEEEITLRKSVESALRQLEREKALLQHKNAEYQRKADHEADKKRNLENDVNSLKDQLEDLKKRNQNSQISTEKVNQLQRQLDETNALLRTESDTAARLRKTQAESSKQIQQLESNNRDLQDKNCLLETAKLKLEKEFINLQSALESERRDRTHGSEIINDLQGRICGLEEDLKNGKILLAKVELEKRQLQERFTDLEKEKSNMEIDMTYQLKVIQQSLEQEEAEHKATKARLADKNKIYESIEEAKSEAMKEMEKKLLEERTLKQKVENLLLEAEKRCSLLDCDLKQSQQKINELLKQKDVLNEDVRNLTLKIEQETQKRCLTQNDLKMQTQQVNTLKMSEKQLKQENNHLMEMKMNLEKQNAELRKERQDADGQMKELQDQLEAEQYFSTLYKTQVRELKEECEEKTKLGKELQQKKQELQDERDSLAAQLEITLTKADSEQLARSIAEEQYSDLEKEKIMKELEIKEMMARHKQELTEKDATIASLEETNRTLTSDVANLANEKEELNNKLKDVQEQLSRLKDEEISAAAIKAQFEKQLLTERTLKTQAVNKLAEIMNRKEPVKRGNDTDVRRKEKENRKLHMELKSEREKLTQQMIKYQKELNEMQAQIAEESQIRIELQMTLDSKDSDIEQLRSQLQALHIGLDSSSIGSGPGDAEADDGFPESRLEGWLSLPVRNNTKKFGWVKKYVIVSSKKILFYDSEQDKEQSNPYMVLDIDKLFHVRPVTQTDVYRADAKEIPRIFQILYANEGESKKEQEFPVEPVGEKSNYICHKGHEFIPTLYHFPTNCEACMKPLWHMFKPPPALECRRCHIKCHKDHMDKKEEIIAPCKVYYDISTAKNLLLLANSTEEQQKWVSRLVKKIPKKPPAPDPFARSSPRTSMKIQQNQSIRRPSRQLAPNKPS

Chain of FAK protein (Q05397 whole entry): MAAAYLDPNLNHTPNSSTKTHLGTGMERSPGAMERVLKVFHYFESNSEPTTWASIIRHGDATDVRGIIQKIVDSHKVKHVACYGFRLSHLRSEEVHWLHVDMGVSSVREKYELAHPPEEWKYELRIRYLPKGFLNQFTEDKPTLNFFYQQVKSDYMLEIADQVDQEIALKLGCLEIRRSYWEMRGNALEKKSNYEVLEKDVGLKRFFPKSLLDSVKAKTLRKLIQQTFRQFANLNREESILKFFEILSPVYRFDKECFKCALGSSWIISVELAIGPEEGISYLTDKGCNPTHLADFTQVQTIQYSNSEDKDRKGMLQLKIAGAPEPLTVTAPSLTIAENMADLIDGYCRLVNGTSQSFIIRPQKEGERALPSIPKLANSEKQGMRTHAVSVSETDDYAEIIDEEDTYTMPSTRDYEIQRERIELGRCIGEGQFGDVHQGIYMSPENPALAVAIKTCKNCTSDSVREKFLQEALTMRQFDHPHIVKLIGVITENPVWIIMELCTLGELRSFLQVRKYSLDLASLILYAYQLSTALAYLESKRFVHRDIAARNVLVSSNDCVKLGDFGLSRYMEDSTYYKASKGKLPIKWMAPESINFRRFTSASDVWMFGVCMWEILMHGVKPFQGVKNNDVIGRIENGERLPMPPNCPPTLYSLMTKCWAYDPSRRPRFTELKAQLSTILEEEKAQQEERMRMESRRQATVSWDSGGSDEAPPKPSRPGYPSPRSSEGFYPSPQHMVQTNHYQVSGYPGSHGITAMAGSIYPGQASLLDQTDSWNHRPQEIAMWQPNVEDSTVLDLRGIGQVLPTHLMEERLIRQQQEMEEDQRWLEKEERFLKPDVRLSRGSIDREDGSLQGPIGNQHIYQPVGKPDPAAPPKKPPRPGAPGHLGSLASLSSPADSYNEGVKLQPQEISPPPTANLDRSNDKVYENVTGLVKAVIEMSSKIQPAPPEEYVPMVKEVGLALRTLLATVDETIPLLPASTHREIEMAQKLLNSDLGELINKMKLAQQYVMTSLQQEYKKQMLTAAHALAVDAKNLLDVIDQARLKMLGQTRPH

Compound	FAK protein degradation rate (FAK protein) [%]	inhibition at 0.03 µM (ROCK2 protein [1]) [%]	inhibition at 1 µM (ROCK2 protein [2]) [%]	inhibition at 10 µM (ROCK2 protein [2]) [%]	inhibition at 10 µM (ROCK2 protein [1]; evaluation concentration 10 µM) [%]
2-(4-((6-(4-Fluorobenzyl)-1-(2-((2R,5R)-2-(methoxymethyl)-5-methylpiperazin-1-yl)acetyl)-3,3-dimethyl-2,3-dihydro-1H-pyrrolo[3,2-b]pyridin-5-yl)methyl)piperazin-1-yl)-N-(4-((4-((3-(methylsulfonyl)benzyl)amino)-5-(trifluoromethyl)pyrimidin-2-yl)amino)phenyl)acetamide [Example 114]	≥ 75	–	–	–	–
C[C@@H]1CN(CC(=O)N2CC(C)(C)c3ncc(Cc4ccc(F)cc4)cc32)[C@@H](CN(C)CCOCCOCCOCCOCC(=O)Nc2ccc(Nc3ncc(C(F)(F)F)c(NCc4cccc(S(C)(=O)=O)c4)n3)cc2)CN1 [Example 112, 1-((2R,5R)-1-(2-(6-(4-Fluorobenzyl)-3,3-dimethyl-2,3-dihydro-1H-pyrrolo[3,2-b]pyridin-1-yl)-2-oxoethyl)-5-methylpiperazin-2-yl)-2-methyl-N-(4-((4-((3-(methylsulfonyl)benzyl)amino)-5-(trifluoromethyl)pyrimidin-2-yl)amino)phenyl)-5,8,11,14-tetraoxa-2-azahexadecan-16-amide]	≥ 75	–	–	–	–
COC[C@H]1CN[C@H](C)CN1CC(=O)N1CC(C)(C)c2ncc(Cc3cccc(OCCN4CCN(CC(=O)Nc5ccc(Nc6ncc(C(F)(F)F)c(NCc7cccc(S(C)(=O)=O)c7)n6)cc5)CC4)c3)cc21 [Example 124, 2-(4-(2-(3-((1-(2-((2R,5R)-2-(Methoxymethyl)-5-methylpiperazin-1-yl)acetyl)-3,3-dimethyl-2,3-dihydro-1H-pyrrolo[3,2-b]pyridin-6-yl)methyl)phenoxy)ethyl)piperazin-1-yl)-N-(4-((4-((3-(methylsulfonyl)benzyl)amino)-5-(trifluoromethyl)pyrimidin-2-yl)amino)phenyl)acetamide]	≥ 75	–	–	–	–
COC[C@H]1CN[C@H](C)CN1CC(=O)N1CC(C)(C)c2ncc(Cc3ccccc3OCCN3CCN(CC(=O)Nc4ccc(Nc5ncc(C(F)(F)F)c(NCc6cccc(S(C)(=O)=O)c6)n5)cc4)CC3)cc21 [Example 119, 2-(4-(2-(2-((1-(2-((2R,5R)-2-(Methoxymethyl)-5-methylpiperazin-1-yl)acetyl)-3,3-dimethyl-2,3-dihydro-1H-pyrrolo[3,2-b]pyridin-6-yl)methyl)phenoxy)ethyl)piperazin-1-yl)-N-(4-((4-((3-(methylsulfonyl)benzyl)amino)-5-(trifluoromethyl)pyrimidin-2-yl)amino)phenyl)acetamide]	≥ 75	–	–	–	–
C[C@@H]1CN(CC(=O)N2CC(C)(C)c3ncc(Cc4ccc(F)cc4)cc32)[C@@H](CN(C)CCOCCOCC(=O)Nc2ccc(Nc3ncc(C(F)(F)F)c(NCc4cccc(S(C)(=O)=O)c4)n3)cc2)CN1 [Example 110, 2-(2-(2-((((2R,5R)-1-(2-(6-(4-fluorobenzyl)-3,3-dimethyl-2,3-dihydro-1H-pyrrolo[3,2-b]pyridin-1-yl)-2-oxoethyl)-5-methylpiperazin-2-yl)methyl) (methyl)amino)ethoxy)ethoxy)-N-(4-((4-((3-(methylsulfonyl)benzyl)amino)-5-(trifluoromethyl)pyrimidin-2-yl)amino)phenyl)acetamide]	≥ 75	–	–	–	–
COC[C@H]1CN[C@H](C)CN1CC(=O)N1CC(C)(C)c2ncc(Cc3ccccc3OCCOCCOCCOCCNC[C@@H](C(=O)Nc3ccc4cnccc4c3)c3ccccc3)cc21 [Example 80, (S)-N-(Isoquinolin-6-yl)-1-(2-((1-(2-((2R,5R)-2-(methoxymethyl)-5-methylpiperazin-1-yl)acetyl)-3,3-dimethyl-2,3-dihydro-1H-pyrrolo[3,2-b]pyridin-6-yl)methyl)phenoxy)-14-phenyl-3,6,9-trioxa-12-azapentadecan-15-amide]	–	25 to 50	50 to 75	≥ 75	–
COC[C@H]1CN[C@H](C)CN1CC(=O)N1CC(C)(C)c2ncc(Cc3cccc(OCCOCCOCCOCCOCCOCCOCCN[C@H](C)c4ccc(C(=O)Nc5ccncc5)cc4)c3)cc21 [Example 48, 4-((R)-23-(3-((1-(2-((2R,5R)-2-(Methoxymethyl)-5-methylpiperazin-1-yl)acetyl)-3,3-dimethyl-2,3-dihydro-1H-pyrrolo[3,2-b]pyridin-6-yl)methyl)phenoxy)-6,9,12,15,18,21-hexaoxa-3-azatricosan-2-yl)-N-(pyridin-4-yl)benzamide]	–	–	50 to 75	50 to 75	≥ 75
COC[C@H]1CN[C@H](C)CN1CC(=O)N1CC(C)(C)c2nc(CN(C)CCOCCNC[C@@H](C(=O)Nc3ccc4cnccc4c3)c3ccccc3)c(Cc3ccc(F)cc3)cc21 [Example 36, (S)-3-((2-(2-(((6-(4-Fluorobenzyl)-1-(2-((2R,5R)-2-(methoxymethyl)-5-methylpiperazin-1-yl)acetyl)-3,3-dimethyl-2,3-dihydro-1H-pyrrolo[3,2-b]pyridin-5-yl)methyl)(methyl)amino)ethoxy)ethyl)amino)-N-(isoquinolin-6-yl)-2-phenylpropanamide]	–	50 to 75	25 to 50	≥ 75	–
